From ChEMBL document CHEMBL4422633, “Antioxidant-Inspired Drug Discovery: Antitumor Metabolite Is Formed in Situ from a Hydroxycinnamic Acid Derivative upon Free-Radical Scavenging” (J Med Chem, 2019)

Legend:
[1] = Cytotoxicity against mouse L5178B1 cells transfected with pHa MDR1/A retrovirus assessed as reduction in cell viability after 72 hrs by MTT assay; format: functional, cell-based; settings: MDR1, 72 h
[2] = Cytotoxicity against mouse L5178 cells assessed as reduction in cell viability after 72 hrs by MTT assay; format: functional, cell-based; settings: L5178, 72 h
[3] = Antioxidant activity assessed as hydroxyl radical scavenging activity by measuring inhibition of damage to 2-deoxy-D-ribose after 3 mins by TBA-based Fenton reaction assay; format: functional

Row | SMILES | IC50 [1] [µM] | IC50 [2] [µM] | IC50 [3] [µM]
1 | COC(=O)/C=C/c1ccc(O)c(O)c1 [METHYLCAFFEATE] | 113 | 104 | 
2 | CC(C)(C)/[N+]([O-])=C/c1ccc(S(=O)(=O)O)cc1S(=O)(=O)O |  |  | 1830
